The values that follow come from patent publication US11926619B2, “Certain pladienolide compounds and methods of use” (EISAI R&D MANAGEMENT CO., LTD., priority 2018, dated 2024).

A value given as a limit tells only on which side of the number the result lay.

The conditions of data set [1]: in vivo; cited from earlier work.
Data set [2] deals with WiDr-R cells (colon cancer cells; chemically-induced SF3B1 R1074H mutant). The following applies: R1074H mutation; cited from earlier work.
The conditions of data set [3]: from C=CC[C@@](C)(CCCCC(=O)O[C@H](/C(C)=C/I)[C@@H](C)C=C)O[Si](CC)(CC)CC; rcm bond; Hoveyda-Grubbs catalyst; toluene; 4.0 mM; 50.0 °C; 2.0 h.
Data set [4] relates to WiDr cells (colon cancer cells; wildtype SF3B1). The data set can be described thus: Cell viability assay (CellTiter-Glo, 72 hr), WiDr cells. The format is cell-based. The following applies: Homo sapiens; WiDr cells (wildtype SF3B1); read-out: WiDr GI50. The procedure, abridged:
(§1)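 Cells at 2000/well were exposed to 9 compound concentrations (0.1% DMSO) in duplicate or triplicate for 72 hr at 37 °C. ATP was read by CellTiter-Glo against a time-zero plate and DMSO control growth. Percent growth/viability was plotted against concentration to give Emax; negative values indicate lethality.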
In general terms: In ATP-based viability assays light output follows the ATP content of the culture.

Data set [5] relates to WiDr-R cells (colon cancer cells; chemically-induced SF3B1 R1074H mutant). The data set can be described thus: Cell viability assay (CellTiter-Glo, 72 hr), resistant WiDr-R cells (counter-screen). The format is cell-based. The following applies: WiDr-R cells (SF3B1 R1074H mutation, resistant); read-out: WiDr-R GI50. The method in brief: as §1
Data set [6] deals with T1, SF3b complexes (Homo sapiens, UniProt O75533+Q7RTV0).
T1 construct: endogenous in cells
The data set can be described thus: Scintillation proximity assay (SPA) with [3H]-labelled pladienolide probe. The format is binding. Particulars: wt SF3B1, read-out: SPA (wt SF3B1 cells) IC50. The method in brief: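 SF3b complexes immunoprecipitated from nuclear extracts with anti-SF3B1 antibody on anti-mouse PVT SPA beads. Beads pre-incubated 30 min with varying PB or PB-OH, then 2.5 nM [3H]-PB added for 30 min; scintillation signal read and fit by non-linear regression.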
A general note: SPA uses beads or plates that emit light when radiolabelled molecules are held near them.

In data set [7] the test system is Panc 05.04 cells (pancreatic cancer cells; Q699H and K700E mutations in SF3B1). Kind of data set: Cell viability assay (CellTiter-Glo, 72 hr), Panc 05.04 cells. The following applies: Panc 05.04 cells (mutant SF3B1); for Emax: maximum achievable response in tested dose range, negative value = cellular lethality, read-out: Panc 05.04 (mt SF3B1 cells) Emax (%); for GI50: read-out: Panc 05.04 (mt SF3B1 cells), GI50. The format is cell-based. The procedure, abridged:
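Panc 05.04 cells treated 72 hr at 37 °C with 9 compound concentrations (0.1% DMSO), duplicate or triplicate. ATP read by CellTiter-Glo; growth inhibition/viability calculated against a time-zero plate and DMSO control growth. Emax is the maximal response over the tested range, negative values meaning lethality.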

As to tremelimumab, the plasma half-life entry in data set [1] is recorded as “approximately 22 days”.
As for `CCC(O)C(C)C1OC1CC(C)(O)/C=C/C=C(\C)C1OC(=O)CC(O)CCC(C)(O)C(OC(=O)N2CCN(C3CCCCCC3)CC2)/C=C/C1C` (centres unmarked) [Compound E7107, (8E,12E,14E)-7-((4-Cycoheptylpiperazin-1-yl)carbonyl)oxy-3,6,16,21-tetrahydroxy-6,10,12,16,20-pentamethyl-18,19-epoxytricosa-8,12,14-trien-11-olide], the “resistance of WiDr-R cells in terms of growth inhibition” value in data set [2] is “resistant”.
For the compound `CC[Si](CC)(CC)O[C@@]1(C)CC=C[C@H](C)[C@@H](/C(C)=C/I)OC(=O)CCCC1`, the ring closure, yield of all isomers in data set [3] stood at 53%.
The GI50 is the concentration at which growth is held to half of that of the control. As a reminder, the IC50 is the concentration that gives 50% inhibition. `C/C(=C\C=C\[C@@H](C)c1ccccn1)[C@H]1OC(=O)C[C@H](O)CC[C@@](C)(O)[C@@H](OC(=O)N2C[C@H]3C[C@H]2CN3C)/C=C/[C@@H]1C`: the figures for the concentration for 50% growth inhibition (GI50) in data set [4], in data set [5] and in data set [7] were 41.5 nM, > 1000 nM and 56.4 nM, respectively. In data set [6], the 50% inhibitory concentration (IC50) amounted to 12.3 nM. In data set [7], the Emax was -29.4%.
For `C/C(=C\C=C\[C@@H](C)CNC(=O)N1CCC[C@H]1CO)[C@H]1OC(=O)C[C@H](O)CC[C@@](C)(O)[C@@H](OC(=O)N2CCN(C3CCCCCC3)CC2)/C=C/[C@@H]1C`, the concentration for 50% growth inhibition (GI50) in data set [4] is 95.9 nM; in data set [5], > 1000 nM; in data set [7], 77.3 nM. Also, in data set [6], the half-maximal inhibitory concentration (IC50) stood at 40.8 nM. For the same compound, the Emax in data set [7] was -85%.
Consider `C/C(=C\C=C\[C@H](C)c1ncccn1)[C@H]1OC(=O)C[C@H](O)CC[C@@](C)(O)[C@@H](OC(=O)N2CCN(C3CCCCCC3)CC2)/C=C/[C@@H]1C`, for which the values for the concentration for 50% growth inhibition (GI50) in data set [4], in data set [5] and in data set [7] were 38.1 nM, > 1000 nM and 34.5 nM, respectively. Besides, the IC50 in data set [6] worked out at 6.57 nM. Further, in data set [7], the Emax was -93.1%.
On the same counts, the results for `C/C(=C\C=C\C(C)c1ncccc1C)[C@H]1OC(=O)C[C@H](O)CC[C@@](C)(O)[C@@H](OC(=O)N2CCN(C3CCCCCC3)CC2)/C=C/[C@@H]1C` (some centres unmarked) are 15.8 nM, > 1000 nM, 21.2 nM, 6.26 nM and -92.3%.
For `C/C(=C\C=C\[C@@H](C)COC(=O)N1CC[C@H](F)C1)[C@H]1OC(=O)C[C@H](O)CC[C@@](C)(O)[C@@H](OC(=O)N2CCN(C3CCCCCC3)CC2)/C=C/[C@@H]1C`, the concentration for 50% growth inhibition (GI50) in data set [4] is 4.3 nM; in data set [5] it was > 1000 nM; in data set [7] it was 1.76 nM. In addition, the IC50 in data set [6] amounted to 1.93 nM. Also, in data set [7], the Emax was -79.4%.
Take `CCN(CC)C(=O)OC[C@H](C)/C=C/C=C(\C)[C@H]1OC(=O)C[C@H](O)CC[C@@](C)(O)[C@@H](OC(C)=O)/C=C/[C@@H]1C`: the values for the concentration for 50% growth inhibition (GI50) in data set [4], in data set [5] and in data set [7] were 21.2 nM, > 10000 nM and 25 nM, respectively. For the same compound, the IC50 in data set [6] is 2.4 nM. Also, the Emax in data set [7] was -92.2%.
With `C/C(=C\C=C\[C@@H](C)COC(=O)N1CCCC1)[C@H]1OC(=O)C[C@H](O)CC[C@](C)(O)[C@@H](OC(=O)N2CCN(C)CC2)/C=C/[C@@H]1C`, the GI50 was 7.12 nM in data set [4], > 1000 nM in data set [5] and 3.14 nM in data set [7]. In addition, the half-maximal inhibitory concentration (IC50) in data set [6] is 5.69 nM. Further, the Emax in data set [7] was -83.7%.
`CC(=O)O[C@H]1/C=C/[C@H](C)[C@@H](/C(C)=C/C=C/[C@@H](C)COC(=O)N2CCC[C@@H]2C)OC(=O)C[C@H](O)CC[C@@]1(C)O`: the GI50 in data set [4] is 38.1 nM; in data set [5], > 10000 nM; in data set [7], 52.6 nM. Besides, the half-maximal inhibitory concentration (IC50) in data set [6] amounted to 27.3 nM. For the same compound, in data set [7], the Emax was -90%.
In the same order, the values of `C/C(=C\C=C\C(C)c1ncccn1)[C@H]1OC(=O)C[C@H](O)CC[C@@](C)(O)[C@@H](OC(=O)N2CCN(C)CC2)/C=C/[C@@H]1C` (some centres unmarked) are 60.1 nM, > 1000 nM, 155 nM, 38.4 nM and -22.2%.
In the same order, the values of `C/C(=C\C=C\[C@@H](C)COC(=O)N1CC[C@@H](C(=O)O)C1)[C@H]1OC(=O)C[C@H](O)CC[C@@](C)(O)[C@@H](OC(=O)N2CCN(C3CCCCCC3)CC2)/C=C/[C@@H]1C` are 692 nM, > 1000 nM, 108 nM, 2.25 nM and -58.3%.
With `C/C(=C\C=C\[C@@H](C)COC(=O)N1CCCC1)[C@H]1OC(=O)CCCCC[C@@H](OC(=O)N2CCN(C)CC2)/C=C/[C@@H]1C`, the GI50 in data set [4] stood at 7.84 nM; in data set [5] it was 2440 nM; in data set [7] it was 6.74 nM. In addition, in data set [6], the half-maximal inhibitory concentration (IC50) stood at 3.71 nM. In data set [7], the Emax is -90.5%.
For `C/C(=C\C=C\[C@H](C)c1ccccn1)[C@H]1OC(=O)C[C@H](O)CC[C@@](C)(O)[C@@H](OC(=O)N2CCC(N3CCCCCC3)CC2)/C=C/[C@@H]1C`, the concentration for 50% growth inhibition (GI50) in data set [4] is 7.18 nM; in data set [5], > 1000 nM; in data set [7], 13.6 nM. Also, the IC50 in data set [6] was determined as 2.35 nM. In addition, the Emax in data set [7] was -93.8%.
`C/C(=C\C=C\[C@@H](C)COC(=O)N1CC=CC1)[C@H]1OC(=O)C[C@H](O)CC[C@@](C)(O)[C@@H](OC(=O)N2CCN(C3CCCCCC3)CC2)/C=C/[C@@H]1C`: the GI50 in data set [4] was 22.2 nM; in data set [5], > 1000 nM; in data set [7], 3.68 nM. Further, the concentration for half-maximal inhibition (IC50) in data set [6] was found to be 3.68 nM. Further, in data set [7], the Emax is -89.8%.
Consider `C/C(=C\C=C\[C@@H](C)c1ccccn1)[C@H]1OC(=O)C[C@H](O)CC[C@@](C)(O)[C@@H](OC(=O)N2CCN(C(C)C)CC2)/C=C/[C@@H]1C`, for which the 50% growth inhibitory concentration (GI50) is 31.8 nM in data set [4], > 1000 nM in data set [5] and 26.6 nM in data set [7]. Also, in data set [6], the IC50 stood at 6.37 nM. In addition, in data set [7], the Emax was -90.1%.
`C/C(=C\C=C\[C@@H](C)COC(=O)N1CCC[C@H]1CF)[C@H]1OC(=O)C[C@H](O)CC[C@@](C)(O)[C@@H](OC(=O)N2CCN(C3CCCCCC3)CC2)/C=C/[C@@H]1C`: the GI50 in data set [4] was 1.24 nM; in data set [5], > 1000 nM; in data set [7] it was 1.75 nM. The concentration for half-maximal inhibition (IC50) in data set [6] came to 4.23 nM. In addition, the Emax in data set [7] is -72.7%.
As to `C/C(=C\C=C\[C@@H](C)c1ccccn1)[C@H]1OC(=O)C[C@H](O)CC[C@@](C)(O)[C@@H](OC(=O)N2CCCN(C)CC2)/C=C/[C@@H]1C`, the figures for the 50% growth inhibitory concentration (GI50) in data set [4], in data set [5] and in data set [7] were 33.1 nM, > 1000 nM and 84.9 nM, respectively. Moreover, the half-maximal inhibitory concentration (IC50) in data set [6] is 6.87 nM. Further, the Emax in data set [7] was -23.1%.
